In patent publication US9695155B2, “Herbicidal substituted pyrimidinyloxy benzene compounds” (E. I. DU PONT DE NEMOURS AND COMPANY, priority 2013, dated 2017):

Assays:
large (Lg) crabgrass = experiment: Test C preemergence; assay type: in vivo, Digitaria sanguinalis; settings: Digitaria sanguinalis, pre-emergence
Outline: (§1)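 Visual injury score versus untreated controls, 0 = no effect, 100 = complete control, taken 13 to 15 days after treatment in the greenhouse. Pre-emergence pots held loam/sand; post-emergence plants grew in sphagnum peat/vermiculite mix and were sprayed at the 1- to 4-leaf stage.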

wheat, winter = experiment: Test C preemergence; assay type: in vivo, Triticum aestivum; settings: Triticum aestivum, pre-emergence, preemergence, read-out: Wheat plant response rating
Outline: as §1

kochia [1] = experiment: Test A preemergence; assay type: in vivo, Kochia scoparia; settings: 0 to 100 scale where 0 is no effect and 100 is complete control
Outline: (§2)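 Greenhouse pot test, loam/sand soil. Formulation: non-phytotoxic solvent mix plus surfactant. Pre: directed spray onto soil after sowing. Post: plants at 1–2 leaf, 2–10 cm. Rated visually vs untreated controls at ~10 d, 0 (no effect) to 100 (complete control).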

waterhemp = experiment: Test C preemergence; assay type: in vivo, Amaranthus rudis; settings: Amaranthus tuberculatus, pre-emergence, preemergence, read-out: Waterhemp plant response rating
Outline: as §1

galium = experiment: Test A postemergence; assay type: in vivo, Galium aparine; settings: 0 to 100 scale where 0 is no effect and 100 is complete control
Outline: as §2

giant foxtail = experiment: Test C preemergence; assay type: in vivo, Setaria faberii; settings: Setaria faberi, pre-emergence
Outline: as §1

kochia [2] = experiment: Test A postemergence; assay type: in vivo, Kochia scoparia; settings: 0 to 100 scale where 0 is no effect and 100 is complete control
Outline: as §2

Italian ryegrass [3] = experiment: Test C preemergence; assay type: in vivo, Lolium multiflorum; settings: Lolium multiflorum, pre-emergence, preemergence, read-out: Ryegrass, Italian plant response rating
Outline: as §1

pigweed = experiment: Test C preemergence; assay type: in vivo, Amaranthus retroflexus; settings: Amaranthus retroflexus, pre-emergence, preemergence, read-out: Pigweed plant response rating
Outline: as §1

oilseed rape = experiment: Test C preemergence; assay type: in vivo, Brassica napus; settings: Brassica napus, pre-emergence, preemergence, read-out: Oilseed Rape plant response rating
Outline: as §1

velvetleaf = experiment: Test C preemergence; assay type: in vivo, Abutilon theophrasti; settings: Abutilon theophrasti, pre-emergence, preemergence, read-out: Velvetleaf plant response rating
Outline: as §1

ragweed [4] = experiment: Test A preemergence; assay type: in vivo, Ambrosia elatior; settings: 0 to 100 scale where 0 is no effect and 100 is complete control
Outline: as §2

ragweed [5] = experiment: Test C preemergence; assay type: in vivo, Ambrosia elatior; settings: Ambrosia artemisiifolia, pre-emergence, preemergence, read-out: Ragweed plant response rating
Outline: as §1

Italian ryegrass [6] = experiment: Test A preemergence; assay type: in vivo, Lolium multiflorum; settings: 0 to 100 scale where 0 is no effect and 100 is complete control
Outline: as §2

johnsongrass = experiment: Test C preemergence; assay type: in vivo, Sorghum halepense; settings: Sorghum halepense, pre-emergence, preemergence, read-out: Johnsongrass plant response rating
Outline: as §1

ragweed [7] = experiment: Test A postemergence; assay type: in vivo, Ambrosia elatior; settings: 0 to 100 scale where 0 is no effect and 100 is complete control
Outline: as §2

soybean = experiment: Test C preemergence; assay type: in vivo, Glycine max; settings: Glycine max, pre-emergence, preemergence, read-out: Soybean plant response rating
Outline: as §1

barnyardgrass = experiment: Test C preemergence; assay type: in vivo, Echinochloa crus-galli; settings: Echinochloa crus-galli, pre-emergence
Outline: as §1

blackgrass = experiment: Test C preemergence; assay type: in vivo, Alopecurus myosuroides; settings: Alopecurus myosuroides, pre-emergence
Outline: as §1

[8] = 16 g ai/ha, scale 0 to 100 (0 no effect, 100 complete control)
[9] = 62 g ai/ha, scale 0 (no effect) to 100 (complete control)
[10] = 125 g ai/ha, scale 0 (no effect) to 100 (complete control)

FC(F)c1cn(-c2ccccc2Oc2ncc(Cl)cn2)nn1 [Compound 147, 5-chloro-2-[2-[4-(difluoromethyl)-1H-1,2,3-triazol-1-yl]phenoxy]pyrimidine]
10: Plant response rating, Ryegrass, Italian (Italian ryegrass [6]; 125 g ai/ha)
98%: pest or weed control at 16 g/ha (large (Lg) crabgrass; 16 g ai/ha, preemergence, scale 0 to 100 (0 no effect, 100 complete control), read-out: Crabgrass, Large plant response rating) | pest or weed control at 62 g/ha (ragweed [5]; [9])
50%: pest or weed control at 62 g/ha (Italian ryegrass [3]; [9]) | pest or weed control at 62 g/ha (blackgrass; 62 g ai/ha, preemergence, scale 0 (no effect) to 100 (complete control), read-out: Blackgrass plant response rating)
90%: pest or weed control at 125 g/ha (johnsongrass; [10]) | pest or weed control at 62 g/ha (barnyardgrass; 62 g ai/ha, preemergence, scale 0 (no effect) to 100 (complete control), read-out: Barnyardgrass plant response rating) | pest or weed control at 125 g/ha (blackgrass; 125 g ai/ha, preemergence, scale 0 (no effect) to 100 (complete control), read-out: Blackgrass plant response rating)
40%: pest or weed control at 31 g/ha (blackgrass; Preemergence, 31 g ai/ha, scale 0 to 100, 0 no effect, 100 complete control, read-out: Plant response rating, Blackgrass)
10%: pest or weed control at 16 g/ha (johnsongrass; [8]) | pest or weed control at 16 g/ha (barnyardgrass; 16 g ai/ha, preemergence, scale 0 to 100 (0 no effect, 100 complete control), read-out: Barnyardgrass plant response rating)
25%: plant injury at 125 g/ha (wheat, winter; [10])
0%: plant injury at 16 g/ha (wheat, winter; [8]) | plant injury at 62 g/ha (wheat, winter; [9]) | pest or weed control at 16 g/ha (Italian ryegrass [3]; [8]) | pest or weed control at 16 g/ha (blackgrass; 16 g ai/ha, preemergence, scale 0 to 100 (0 no effect, 100 complete control), read-out: Blackgrass plant response rating)
100: Plant response rating, Kochia (kochia [1]; 125 g ai/ha) | Kochia plant response rating (kochia [1]; 500 g ai/ha) | Galium plant response rating (galium; 125 g ai/ha) | Plant response rating, Galium (galium; 500 g ai/ha) | Kochia plant response rating (kochia [2]; 125 g ai/ha) | Plant response rating, Kochia (kochia [2]; 500 g ai/ha) | Ragweed plant response rating (ragweed [4]; 500 g ai/ha) | Ryegrass, Italian plant response rating (Italian ryegrass [6]; 500 g ai/ha) | Ragweed plant response rating (ragweed [7]; 125 g ai/ha) | Plant response rating, Ragweed (ragweed [7]; 500 g ai/ha)
80%: pest or weed control at 62 g/ha (johnsongrass; [9]) | pest or weed control at 31 g/ha (barnyardgrass; Preemergence, 31 g ai/ha, scale 0 to 100, 0 no effect, 100 complete control, read-out: Plant response rating, Barnyardgrass)
85%: plant injury at 16 g/ha (soybean; [8])
95%: plant injury at 62 g/ha (soybean; [9]) | plant injury at 125 g/ha (soybean; [10])
75%: pest or weed control at 16 g/ha (ragweed [5]; [8])
100%: pest or weed control at 62 g/ha (large (Lg) crabgrass; 62 g ai/ha, preemergence, scale 0 (no effect) to 100 (complete control), read-out: Crabgrass, Large plant response rating) | pest or weed control at 125 g/ha (large (Lg) crabgrass; 125 g ai/ha, preemergence, scale 0 (no effect) to 100 (complete control), read-out: Crabgrass, Large plant response rating) | pest or weed control at 31 g/ha (large (Lg) crabgrass; Preemergence, 31 g ai/ha, scale 0 to 100, 0 no effect, 100 complete control, read-out: Plant response rating, Crabgrass, Large) | pest or weed control at 16 g/ha (waterhemp; [8]) | pest or weed control at 62 g/ha (waterhemp; [9]) | pest or weed control at 125 g/ha (waterhemp; [10]) | pest or weed control at 62 g/ha (giant foxtail; 62 g ai/ha, preemergence, scale 0 (no effect) to 100 (complete control), read-out: Foxtail, Giant plant response rating) | pest or weed control at 125 g/ha (giant foxtail; 125 g ai/ha, preemergence, scale 0 (no effect) to 100 (complete control), read-out: Foxtail, Giant plant response rating) | pest or weed control at 31 g/ha (giant foxtail; Preemergence, 31 g ai/ha, scale 0 to 100, 0 no effect, 100 complete control, read-out: Plant response rating, Foxtail, Giant) | pest or weed control at 16 g/ha (pigweed; [8]) | pest or weed control at 62 g/ha (pigweed; [9]) | pest or weed control at 125 g/ha (pigweed; [10]) | plant injury at 16 g/ha (oilseed rape; [8]) | plant injury at 62 g/ha (oilseed rape; [9]) | plant injury at 125 g/ha (oilseed rape; [10]) | pest or weed control at 16 g/ha (velvetleaf; [8]) | pest or weed control at 62 g/ha (velvetleaf; [9]) | pest or weed control at 125 g/ha (velvetleaf; [10]) | pest or weed control at 125 g/ha (ragweed [5]; [10]) | pest or weed control at 125 g/ha (barnyardgrass; 125 g ai/ha, preemergence, scale 0 (no effect) to 100 (complete control), read-out: Barnyardgrass plant response rating)
70%: pest or weed control at 16 g/ha (giant foxtail; 16 g ai/ha, preemergence, scale 0 to 100 (0 no effect, 100 complete control), read-out: Foxtail, Giant plant response rating) | pest or weed control at 125 g/ha (Italian ryegrass [3]; [10])
90: Plant response rating, Ragweed (ragweed [4]; 125 g ai/ha)
